Assay results from the kinase profiling compilation of Christmann-Franck et al. (2016).
Each block holds one compound with its values, some of them ahead of it.

Columns and labels:
Assay in all cases: KINOMEscan competition binding
Conditions in all cases: compound 10.0 µM
[1] = test system: ABL1 (human), P00519 [F317I]
[2] = test system: ABL1 (human), P00519 [Q252H]
[3] = test system: ABL1 (human), P00519 [T315I]
ADCK3 (human) = ADCK3 (human) (UniProt Q8NI60)
AKT2 (human) = AKT2 (human) (UniProt P31751)
AURKB (human) = AURKB (human) (UniProt Q96GD4)
BRAF (human) = BRAF (human) (UniProt P15056)
CAMK2D (human) = CAMK2D (human) (UniProt Q13557)
CAMKK1 (human) = CAMKK1 (human) (UniProt Q8N5S9)
CDK15 (human) = CDK15 (human) (UniProt Q96Q40)
CDKL5 (human) = CDKL5 (human) (UniProt O76039)
CSNK1E (human) = CSNK1E (human) (UniProt P49674)
Chain of CSNK1E (human) (P49674 whole entry, looked up): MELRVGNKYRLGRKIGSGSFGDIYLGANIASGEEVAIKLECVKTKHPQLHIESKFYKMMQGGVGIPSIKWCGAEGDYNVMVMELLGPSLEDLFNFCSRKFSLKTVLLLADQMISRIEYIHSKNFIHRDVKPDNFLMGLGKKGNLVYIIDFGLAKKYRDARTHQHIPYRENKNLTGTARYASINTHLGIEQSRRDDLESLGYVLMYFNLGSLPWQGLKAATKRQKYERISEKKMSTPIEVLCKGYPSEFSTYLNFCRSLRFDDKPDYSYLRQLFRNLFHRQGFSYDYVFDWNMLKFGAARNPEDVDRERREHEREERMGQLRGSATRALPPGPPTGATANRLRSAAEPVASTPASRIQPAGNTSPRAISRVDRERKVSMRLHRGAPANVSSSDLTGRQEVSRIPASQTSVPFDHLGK

DDR2 (human) = DDR2 (human) (UniProt Q16832)
EPHA8 (human) = EPHA8 (human) (UniProt P29322)
EPHB3 (human) = EPHB3 (human) (UniProt P54753)
ERBB3 (human) = ERBB3 (human) (UniProt P21860)
Chain of ERBB3 (human) (P21860 whole entry, looked up): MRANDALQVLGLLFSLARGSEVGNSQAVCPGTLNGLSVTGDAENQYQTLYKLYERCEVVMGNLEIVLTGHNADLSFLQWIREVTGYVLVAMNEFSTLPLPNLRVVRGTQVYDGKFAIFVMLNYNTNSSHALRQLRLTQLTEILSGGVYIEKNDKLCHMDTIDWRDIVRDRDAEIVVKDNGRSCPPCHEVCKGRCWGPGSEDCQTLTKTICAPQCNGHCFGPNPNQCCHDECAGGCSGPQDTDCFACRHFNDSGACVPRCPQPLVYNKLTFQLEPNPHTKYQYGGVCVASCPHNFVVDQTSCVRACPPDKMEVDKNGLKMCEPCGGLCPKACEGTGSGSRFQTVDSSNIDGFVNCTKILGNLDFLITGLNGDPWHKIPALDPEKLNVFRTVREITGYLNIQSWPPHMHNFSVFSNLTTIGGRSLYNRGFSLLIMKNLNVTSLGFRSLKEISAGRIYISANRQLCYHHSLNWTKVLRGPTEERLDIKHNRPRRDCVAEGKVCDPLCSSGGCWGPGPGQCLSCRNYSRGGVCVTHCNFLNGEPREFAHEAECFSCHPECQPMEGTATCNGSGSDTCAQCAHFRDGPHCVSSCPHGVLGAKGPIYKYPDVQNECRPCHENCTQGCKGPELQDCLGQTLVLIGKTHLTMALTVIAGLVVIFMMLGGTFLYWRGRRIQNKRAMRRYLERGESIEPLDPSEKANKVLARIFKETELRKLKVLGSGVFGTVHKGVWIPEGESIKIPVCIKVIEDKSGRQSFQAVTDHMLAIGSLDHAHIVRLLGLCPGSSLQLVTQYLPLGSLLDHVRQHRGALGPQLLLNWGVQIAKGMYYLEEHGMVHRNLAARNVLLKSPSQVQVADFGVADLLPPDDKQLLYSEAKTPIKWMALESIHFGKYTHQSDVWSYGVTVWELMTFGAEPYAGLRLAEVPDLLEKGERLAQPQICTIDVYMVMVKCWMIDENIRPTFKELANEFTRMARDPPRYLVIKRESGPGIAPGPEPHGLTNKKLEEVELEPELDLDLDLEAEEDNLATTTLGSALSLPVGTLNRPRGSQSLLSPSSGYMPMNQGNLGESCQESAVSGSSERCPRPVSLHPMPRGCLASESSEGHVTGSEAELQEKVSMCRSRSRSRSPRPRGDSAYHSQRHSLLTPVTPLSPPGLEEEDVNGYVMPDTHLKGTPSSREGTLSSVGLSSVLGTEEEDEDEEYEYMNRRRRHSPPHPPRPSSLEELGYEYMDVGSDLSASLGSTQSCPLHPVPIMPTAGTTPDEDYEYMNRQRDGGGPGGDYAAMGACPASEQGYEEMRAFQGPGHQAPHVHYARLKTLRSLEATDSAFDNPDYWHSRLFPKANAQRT

[4] = test system: FGFR3 (human), P22607 [G697C]
FLT1 (human) = FLT1 (human) (UniProt P17948)
HIPK4 (human) = HIPK4 (human) (UniProt Q8NE63)
[5] = molecular target: JAK1 JH2 pseudokinase (human) (UniProt P23458)
MAP3K5 (human) = MAP3K5 (human) (UniProt Q99683)
MAPK10 (human) = MAPK10 (human) (UniProt P53779)
MST1R (human) = MST1R (human) (UniProt Q04912)
MYLK4 (human) = MYLK4 (human) (UniProt Q86YV6)
NEK1 (human) = NEK1 (human) (UniProt Q96PY6)
NEK2 (human) = NEK2 (human) (UniProt P51955)
Chain of NEK2 (human) (P51955 whole entry, looked up): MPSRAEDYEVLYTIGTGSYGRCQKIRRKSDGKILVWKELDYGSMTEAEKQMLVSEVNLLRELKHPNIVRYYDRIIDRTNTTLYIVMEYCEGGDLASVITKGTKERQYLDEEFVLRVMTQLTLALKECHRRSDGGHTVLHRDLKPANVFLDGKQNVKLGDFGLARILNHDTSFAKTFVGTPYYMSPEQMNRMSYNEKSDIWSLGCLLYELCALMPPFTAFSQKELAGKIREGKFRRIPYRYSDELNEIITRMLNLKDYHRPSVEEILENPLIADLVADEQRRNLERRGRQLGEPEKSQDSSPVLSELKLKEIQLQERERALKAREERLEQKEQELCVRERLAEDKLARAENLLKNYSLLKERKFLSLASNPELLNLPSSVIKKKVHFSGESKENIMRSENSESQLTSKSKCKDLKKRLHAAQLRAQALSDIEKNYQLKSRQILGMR

NEK5 (human) = NEK5 (human) (UniProt Q6P3R8)
NTRK2 (human) = NTRK2 (human) (UniProt Q16620)
PHKG2 (human) = PHKG2 (human) (UniProt P15735)
PLK1 (human) = PLK1 (human) (UniProt P53350)
PRKAA2 (human) = PRKAA2 (human) (UniProt P54646)
Chain of PRKAA2 (human) (P54646 whole entry, looked up): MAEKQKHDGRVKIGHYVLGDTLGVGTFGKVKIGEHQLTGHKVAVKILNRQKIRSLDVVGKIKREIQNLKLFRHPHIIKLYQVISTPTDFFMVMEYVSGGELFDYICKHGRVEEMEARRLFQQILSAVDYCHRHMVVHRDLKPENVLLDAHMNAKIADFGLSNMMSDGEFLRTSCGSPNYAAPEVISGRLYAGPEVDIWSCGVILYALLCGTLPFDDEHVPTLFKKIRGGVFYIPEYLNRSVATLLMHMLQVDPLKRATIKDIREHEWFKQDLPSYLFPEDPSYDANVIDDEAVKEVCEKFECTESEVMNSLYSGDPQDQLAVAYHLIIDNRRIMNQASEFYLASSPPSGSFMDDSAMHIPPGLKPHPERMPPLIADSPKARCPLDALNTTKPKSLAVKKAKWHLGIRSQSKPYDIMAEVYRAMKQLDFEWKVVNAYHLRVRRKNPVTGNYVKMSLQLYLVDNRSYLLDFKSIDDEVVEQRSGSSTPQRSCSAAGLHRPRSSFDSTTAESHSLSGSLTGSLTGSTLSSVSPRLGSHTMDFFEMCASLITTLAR

PRKCE (human) = PRKCE (human) (UniProt Q02156)
Chain of PRKCE (human) (Q02156 whole entry, looked up): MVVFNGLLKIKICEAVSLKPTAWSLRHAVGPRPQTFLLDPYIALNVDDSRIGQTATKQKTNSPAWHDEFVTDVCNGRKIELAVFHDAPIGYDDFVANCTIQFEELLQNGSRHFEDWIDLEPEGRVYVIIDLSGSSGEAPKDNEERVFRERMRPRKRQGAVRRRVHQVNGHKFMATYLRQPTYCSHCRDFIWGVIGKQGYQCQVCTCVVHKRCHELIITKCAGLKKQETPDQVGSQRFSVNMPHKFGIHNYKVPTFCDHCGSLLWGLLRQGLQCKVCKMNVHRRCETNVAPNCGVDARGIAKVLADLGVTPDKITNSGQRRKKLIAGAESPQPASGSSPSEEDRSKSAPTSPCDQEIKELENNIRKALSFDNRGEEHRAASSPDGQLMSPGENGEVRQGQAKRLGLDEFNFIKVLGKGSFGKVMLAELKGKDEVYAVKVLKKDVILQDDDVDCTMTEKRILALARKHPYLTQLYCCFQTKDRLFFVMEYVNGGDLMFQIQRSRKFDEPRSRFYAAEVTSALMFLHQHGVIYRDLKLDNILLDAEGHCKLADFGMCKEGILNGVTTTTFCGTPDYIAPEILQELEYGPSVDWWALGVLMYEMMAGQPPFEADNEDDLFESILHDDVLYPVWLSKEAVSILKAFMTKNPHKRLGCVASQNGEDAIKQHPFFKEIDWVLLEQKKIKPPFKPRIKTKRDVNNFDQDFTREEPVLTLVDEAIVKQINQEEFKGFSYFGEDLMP

PRKD1 (human) = PRKD1 (human) (UniProt Q15139)
PRKG2 (human) = PRKG2 (human) (UniProt Q13237)
PTK6 (human) = PTK6 (human) (UniProt Q13882)
[6] = test system: RET (human), P07949 [V804L]
SRPK2 (human) = SRPK2 (human) (UniProt P78362)
STK10 (human) = STK10 (human) (UniProt O94804)
STK3 (human) = STK3 (human) (UniProt Q13188)
TIE1 (human) = TIE1 (human) (UniProt P35590)
TYRO3 (human) = TYRO3 (human) (UniProt Q06418)
YSK4 (human) = YSK4 (human) (UniProt Q56UN5)
Chain of YSK4 (human) (Q56UN5 whole entry, looked up): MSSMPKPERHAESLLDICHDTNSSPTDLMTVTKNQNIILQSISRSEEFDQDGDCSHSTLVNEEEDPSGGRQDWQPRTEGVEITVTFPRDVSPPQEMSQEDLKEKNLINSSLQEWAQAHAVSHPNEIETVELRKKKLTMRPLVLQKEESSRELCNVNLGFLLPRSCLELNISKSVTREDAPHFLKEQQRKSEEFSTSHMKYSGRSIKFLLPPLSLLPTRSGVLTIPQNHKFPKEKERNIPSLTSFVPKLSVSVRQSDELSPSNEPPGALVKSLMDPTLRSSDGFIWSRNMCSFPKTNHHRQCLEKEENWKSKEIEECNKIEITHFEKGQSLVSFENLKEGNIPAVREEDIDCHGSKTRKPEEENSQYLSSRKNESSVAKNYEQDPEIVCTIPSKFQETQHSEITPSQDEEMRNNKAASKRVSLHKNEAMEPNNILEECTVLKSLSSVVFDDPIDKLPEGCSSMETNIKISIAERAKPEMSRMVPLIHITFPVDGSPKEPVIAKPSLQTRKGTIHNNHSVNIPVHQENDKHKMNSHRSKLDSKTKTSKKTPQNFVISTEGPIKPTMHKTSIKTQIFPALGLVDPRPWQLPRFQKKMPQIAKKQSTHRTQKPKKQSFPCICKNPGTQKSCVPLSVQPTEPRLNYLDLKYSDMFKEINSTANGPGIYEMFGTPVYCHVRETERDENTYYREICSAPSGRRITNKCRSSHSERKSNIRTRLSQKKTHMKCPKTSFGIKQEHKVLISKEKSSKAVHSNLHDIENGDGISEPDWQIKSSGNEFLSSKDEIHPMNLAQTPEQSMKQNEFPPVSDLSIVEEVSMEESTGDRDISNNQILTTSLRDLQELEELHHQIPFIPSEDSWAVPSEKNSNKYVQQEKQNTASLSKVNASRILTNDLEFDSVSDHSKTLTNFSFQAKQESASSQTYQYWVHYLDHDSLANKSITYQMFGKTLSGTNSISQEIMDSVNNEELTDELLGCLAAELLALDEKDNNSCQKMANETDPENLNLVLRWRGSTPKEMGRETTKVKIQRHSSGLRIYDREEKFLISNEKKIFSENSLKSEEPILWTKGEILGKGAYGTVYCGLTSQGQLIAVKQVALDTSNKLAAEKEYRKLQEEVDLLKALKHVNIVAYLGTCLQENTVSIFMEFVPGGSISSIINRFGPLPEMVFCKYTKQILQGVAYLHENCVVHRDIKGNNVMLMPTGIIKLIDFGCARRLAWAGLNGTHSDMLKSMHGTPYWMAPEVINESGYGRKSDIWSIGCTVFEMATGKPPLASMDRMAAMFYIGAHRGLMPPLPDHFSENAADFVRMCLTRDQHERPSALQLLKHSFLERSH

kinase still bound, per cent of control [1]: 100%
kinase still bound, per cent of control [2]: 100%
kinase still bound, per cent of control [3]: 100%
kinase still bound, per cent of control (ADCK3 (human)): 100%
kinase still bound, per cent of control (AKT2 (human)): 100%
kinase still bound, per cent of control (AURKB (human)): 94%
kinase still bound, per cent of control (BRAF (human)): 50%
kinase still bound, per cent of control (CAMK2D (human)): 100%
kinase still bound, per cent of control (CAMKK1 (human)): 100%
kinase still bound, per cent of control (CDK15 (human)): 95%
kinase still bound, per cent of control (CDKL5 (human)): 100%
kinase still bound, per cent of control (CSNK1E (human)): 76%
kinase still bound, per cent of control (DDR2 (human)): 100%
kinase still bound, per cent of control (EPHA8 (human)): 100%
kinase still bound, per cent of control (EPHB3 (human)): 100%
kinase still bound, per cent of control (ERBB3 (human)): 73%
kinase still bound, per cent of control [4]: 100%
kinase still bound, per cent of control (FLT1 (human)): 79%
kinase still bound, per cent of control (HIPK4 (human)): 43%
kinase still bound, per cent of control [5]: 87%
kinase still bound, per cent of control (MAP3K5 (human)): 100%
kinase still bound, per cent of control (MAPK10 (human)): 64%
kinase still bound, per cent of control (MST1R (human)): 100%
kinase still bound, per cent of control (MYLK4 (human)): 98%
kinase still bound, per cent of control (NEK1 (human)): 79%
kinase still bound, per cent of control (NEK2 (human)): 72%
kinase still bound, per cent of control (NEK5 (human)): 93%
kinase still bound, per cent of control (NTRK2 (human)): 100%
kinase still bound, per cent of control (PHKG2 (human)): 100%
kinase still bound, per cent of control (PLK1 (human)): 5.4%
kinase still bound, per cent of control (PRKAA2 (human)): 56%
kinase still bound, per cent of control (PRKCE (human)): 100%
kinase still bound, per cent of control (PRKD1 (human)): 100%
kinase still bound, per cent of control (PRKG2 (human)): 100%
kinase still bound, per cent of control (PTK6 (human)): 100%
kinase still bound, per cent of control [6]: 100%
kinase still bound, per cent of control (SRPK2 (human)): 100%
kinase still bound, per cent of control (STK10 (human)): 100%
kinase still bound, per cent of control (STK3 (human)): 100%
kinase still bound, per cent of control (TIE1 (human)): 100%
kinase still bound, per cent of control (TYRO3 (human)): 100%
kinase still bound, per cent of control (YSK4 (human)): 30%
SMILES: Cc1cnc(-c2cnc(NCCNc3ccc(C#N)cn3)nc2-c2ccc(Cl)cc2Cl)[nH]1

kinase still bound, per cent of control [1]: 4.2%
kinase still bound, per cent of control [2]: 3.8%
kinase still bound, per cent of control [3]: 0.65%
kinase still bound, per cent of control (ADCK3 (human)): 80%
kinase still bound, per cent of control (AKT2 (human)): 100%
kinase still bound, per cent of control (AURKB (human)): 2.8%
kinase still bound, per cent of control (BRAF (human)): 89%
kinase still bound, per cent of control (CAMK2D (human)): 2.1%
kinase still bound, per cent of control (CAMKK1 (human)): 4.8%
kinase still bound, per cent of control (CDK15 (human)): 53%
kinase still bound, per cent of control (CDKL5 (human)): 7.4%
kinase still bound, per cent of control (CSNK1E (human)): 18%
kinase still bound, per cent of control (DDR2 (human)): 23%
kinase still bound, per cent of control (EPHA8 (human)): 40%
kinase still bound, per cent of control (EPHB3 (human)): 100%
kinase still bound, per cent of control (ERBB3 (human)): 61%
kinase still bound, per cent of control [4]: 14%
kinase still bound, per cent of control (FLT1 (human)): 1.3%
kinase still bound, per cent of control (HIPK4 (human)): 3%
kinase still bound, per cent of control [5]: 48%
kinase still bound, per cent of control (MAP3K5 (human)): 100%
kinase still bound, per cent of control (MAPK10 (human)): 12%
kinase still bound, per cent of control (MST1R (human)): 100%
kinase still bound, per cent of control (MYLK4 (human)): 7.3%
kinase still bound, per cent of control (NEK1 (human)): 70%
kinase still bound, per cent of control (NEK2 (human)): 82%
kinase still bound, per cent of control (NEK5 (human)): 80%
kinase still bound, per cent of control (NTRK2 (human)): 7.2%
kinase still bound, per cent of control (PHKG2 (human)): 5.6%
kinase still bound, per cent of control (PLK1 (human)): 100%
kinase still bound, per cent of control (PRKAA2 (human)): 4.2%
kinase still bound, per cent of control (PRKCE (human)): 90%
kinase still bound, per cent of control (PRKD1 (human)): 100%
kinase still bound, per cent of control (PRKG2 (human)): 24%
kinase still bound, per cent of control (PTK6 (human)): 84%
kinase still bound, per cent of control [6]: 0%
kinase still bound, per cent of control (SRPK2 (human)): 5.8%
kinase still bound, per cent of control (STK10 (human)): 75%
kinase still bound, per cent of control (STK3 (human)): 0%
kinase still bound, per cent of control (TIE1 (human)): 55%
kinase still bound, per cent of control (TYRO3 (human)): 91%
kinase still bound, per cent of control (YSK4 (human)): 3.8%
SMILES: O=C1Nc2cc(Br)ccc2/C1=C1/Nc2ccccc2/C1=N\O

kinase still bound, per cent of control [1]: 100%
kinase still bound, per cent of control [2]: 100%
kinase still bound, per cent of control [3]: 100%
kinase still bound, per cent of control (ADCK3 (human)): 100%
kinase still bound, per cent of control (AKT2 (human)): 99%
kinase still bound, per cent of control (AURKB (human)): 97%
kinase still bound, per cent of control (BRAF (human)): 57%
kinase still bound, per cent of control (CAMK2D (human)): 100%
kinase still bound, per cent of control (CAMKK1 (human)): 93%
kinase still bound, per cent of control (CDK15 (human)): 100%
kinase still bound, per cent of control (CDKL5 (human)): 100%
kinase still bound, per cent of control (CSNK1E (human)): 87%
kinase still bound, per cent of control (DDR2 (human)): 71%
kinase still bound, per cent of control (EPHA8 (human)): 100%
kinase still bound, per cent of control (EPHB3 (human)): 100%
kinase still bound, per cent of control (ERBB3 (human)): 73%
kinase still bound, per cent of control [4]: 100%
kinase still bound, per cent of control (FLT1 (human)): 57%
kinase still bound, per cent of control (HIPK4 (human)): 49%
kinase still bound, per cent of control [5]: 89%
kinase still bound, per cent of control (MAP3K5 (human)): 71%
kinase still bound, per cent of control (MAPK10 (human)): 53%
kinase still bound, per cent of control (MST1R (human)): 100%
kinase still bound, per cent of control (MYLK4 (human)): 91%
kinase still bound, per cent of control (NEK1 (human)): 100%
kinase still bound, per cent of control (NEK2 (human)): 90%
kinase still bound, per cent of control (NEK5 (human)): 100%
kinase still bound, per cent of control (NTRK2 (human)): 81%
kinase still bound, per cent of control (PLK1 (human)): 100%
kinase still bound, per cent of control (PRKAA2 (human)): 96%
kinase still bound, per cent of control (PRKCE (human)): 100%
kinase still bound, per cent of control (PRKD1 (human)): 69%
kinase still bound, per cent of control (PRKG2 (human)): 100%
kinase still bound, per cent of control (PTK6 (human)): 92%
kinase still bound, per cent of control [6]: 100%
kinase still bound, per cent of control (SRPK2 (human)): 81%
kinase still bound, per cent of control (STK10 (human)): 100%
kinase still bound, per cent of control (STK3 (human)): 3.4%
kinase still bound, per cent of control (TIE1 (human)): 100%
kinase still bound, per cent of control (TYRO3 (human)): 93%
kinase still bound, per cent of control (YSK4 (human)): 49%
SMILES: COc1ccc(CNC(=O)Nc2ncc([N+](=O)[O-])s2)cc1
